Experimental data published in paper PMC2361651 (British Journal of Cancer, 2005).

Columns and labels:
[1] = Plasma pharmacokinetics of SU5416 and metabolites in Phase I patients (HPLC UV); type: in vivo, human; settings: plasma, patients
Experimental: Samples were taken prior to treatment infusion, 15 min into the infusion, at completion of the infusion and then at 5, 10, 20, 30, 45, 60, 120 and 240 min following the infusion. […] At the designated times, 4.0 ml of blood were collected into a lithium heparin tube, gently inverted and placed on ice to maintain the sample at 2–8°C. All samples were immediately centrifuged at 6000 r.p.m. at 4°C for 10 min, the supernatant divided between two 1.5 ml Nalgene cryovials and snap frozen in liquid nitrogen. Separated plasma samples were subsequently stored at −70°C until analysis.
Pharmacokinetic analysis was performed using a fully validated HPLC UV method ([Stopeck et al, 2002]). Plasma samples, standards (25–2000 ng ml^−1) and quality controls spiked with internal standards were extracted with acetonitrile. Following centrifugation, drying and reconstitution in 200 μl mobile phase, 20 μl were analysed by HPLC UV. Chromatography was carried out using a C18 analytical column, with a gradient mobile phase containing acetonitrile and 10 mM ammonium formate at pH 2.6. The flow rate was 0.8 ml min^−1 and the run-time 21 min. Detection was via UV absorption at a wavelength of 440 nm. The accuracy of the assay, reflected in relative error of measured concentration to theoretical (prepared) concentrations, was between 0.9 and 5.6% for all quality control samples.
Pharmacokinetic parameters were evaluated using WinNonLin Software®.

[2] = test system: receptor tyrosine kinases inhibited by the parent compound; set-up: method as in Mendel et al, 2000; settings: ref Mendel et al, 2000; cited from earlier work

SMILES: Cc1cc(CO)[nH]c1/C=C1\C(=O)Nc2ccccc21 [SU9838]
- distribution and clearance of metabolite [1]: large volume of distribution and rapid clearance
- metabolite as proportion of the total [1]: 5.2%
- inhibitory activity for the receptor tyrosine kinases inhibited by the parent compound [2]: Neither metabolite shows inhibitory activity
